# System: broad leaf weeds (Lindernia pyxidaria and Monochoria vaginalis)
# Assay: Test Example 1: herbicidal effect test by treatment of rice paddy soil (immediately after seeding)
# Assay type: in vivo
# Details: Lindernia pyxidaria, 120 g/10a active ingredient, dry weight vs untreated area, 14 days after treatment
# Method in brief: (§1)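 Applied at 120 g a.i./10 ares as diluted emulsion dropped into flooded (~3 cm) paddy soil pots right after sowing seeds 0–1 cm deep; greenhouse, two replicates. At day 14, dry weight of treated versus untreated plants gives % herbicidal rate.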
row,SMILES,Herbicidal rate (%) Lindernia pyxidaria
1,CCS(=O)(=O)N(c1ccccc1Cc1c(C)n(C(C)c2ccccc2)oc1=O)S(=O)(=O)C(F)(F)F (centres unmarked) [Compound 1-917],90%
2,COCC(C)n1oc(=O)c(Cc2ccccc2N(C(=O)Cc2ccccc2)S(=O)(=O)C(F)(F)F)c1C (centres unmarked) [Compound 1-506],90%

# Same assay, conditions: Monochoria vaginalis, 120 g/10a active ingredient, dry weight vs untreated area, 14 days after treatment
row,SMILES,Herbicidal rate (%) Monochoria vaginalis
1,CCS(=O)(=O)N(c1ccccc1Cc1c(C)n(C(C)c2ccccc2)oc1=O)S(=O)(=O)C(F)(F)F (centres unmarked) [Compound 1-917],90%
2,COCC(C)n1oc(=O)c(Cc2ccccc2N(C(=O)Cc2ccccc2)S(=O)(=O)C(F)(F)F)c1C (centres unmarked) [Compound 1-506],90%

# System: Scirpus juncoides
# Assay: as above
# Assay type: in vivo
# Details: 120 g/10a active ingredient, dry weight vs untreated area, 14 days after treatment
# Method in brief: as §1
row,SMILES,Herbicidal rate (%) Scirpus juncoides
1,CCS(=O)(=O)N(c1ccccc1Cc1c(C)n(C(C)c2ccccc2)oc1=O)S(=O)(=O)C(F)(F)F (centres unmarked) [Compound 1-917],90%
2,COCC(C)n1oc(=O)c(Cc2ccccc2N(C(=O)Cc2ccccc2)S(=O)(=O)C(F)(F)F)c1C (centres unmarked) [Compound 1-506],90%

# System: Echinochloa crus-galli
# Assay: as above
# Assay type: in vivo
# Details: 120 g/10a active ingredient, dry weight vs untreated area, 14 days after treatment
# Method in brief: as §1
row,SMILES,Herbicidal rate (%) Echinochloa crus-galli
1,CCS(=O)(=O)N(c1ccccc1Cc1c(C)n(C(C)c2ccccc2)oc1=O)S(=O)(=O)C(F)(F)F (centres unmarked) [Compound 1-917],90%
2,COCC(C)n1oc(=O)c(Cc2ccccc2N(C(=O)Cc2ccccc2)S(=O)(=O)C(F)(F)F)c1C (centres unmarked) [Compound 1-506],90%

# System: southern crabgrass
# Assay: Test Example 3: herbicidal effect test by treatment of dry field farming soil (one day after seeding)
# Assay type: in vivo
# Details: 120 g/10a active ingredient, evaluated 14 days after treatment
# Method in brief: (§2)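 Pre-emergence soil treatment: alluvial dry-field soil, 20 seeds per species mixed into top 1 cm, emulsion diluted in water sprayed one day after seeding at 100 L per 10 ares (120 g active ingredient per 10 ares). Duplicate pots; herbicidal rate (%) from dry weight vs untreated at 14 days.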
row,SMILES,"herbicidal rate, southern crabgrass"
1,CCS(=O)(=O)N(c1ccccc1Cc1c(C)n(C(C)c2ccccc2)oc1=O)S(=O)(=O)C(F)(F)F (centres unmarked) [Compound 1-917],90%
2,COCC(C)n1oc(=O)c(Cc2ccccc2N(C(=O)Cc2ccccc2)S(=O)(=O)C(F)(F)F)c1C (centres unmarked) [Compound 1-506],90%

# System: Amaranthus viridis
# Assay: as above
# Assay type: in vivo
# Details: 120 g/10a active ingredient, evaluated 14 days after treatment
# Method in brief: as §2
row,SMILES,"herbicidal rate, Amaranthus viridis"
1,CCS(=O)(=O)N(c1ccccc1Cc1c(C)n(C(C)c2ccccc2)oc1=O)S(=O)(=O)C(F)(F)F (centres unmarked) [Compound 1-917],90%
2,COCC(C)n1oc(=O)c(Cc2ccccc2N(C(=O)Cc2ccccc2)S(=O)(=O)C(F)(F)F)c1C (centres unmarked) [Compound 1-506],90%

# System: Chenopodium album
# Assay: as above
# Assay type: in vivo
# Details: 120 g/10a active ingredient, evaluated 14 days after treatment
# Method in brief: as §2
row,SMILES,"herbicidal rate, Chenopodium album"
1,CCS(=O)(=O)N(c1ccccc1Cc1c(C)n(C(C)c2ccccc2)oc1=O)S(=O)(=O)C(F)(F)F (centres unmarked) [Compound 1-917],90%
2,COCC(C)n1oc(=O)c(Cc2ccccc2N(C(=O)Cc2ccccc2)S(=O)(=O)C(F)(F)F)c1C (centres unmarked) [Compound 1-506],90%

# System: Echinochloa crus-galli
# Assay: as above
# Assay type: in vivo
# Details: 120 g/10a active ingredient, evaluated 14 days after treatment
# Method in brief: as §2
row,SMILES,"herbicidal rate, Echinochloa crus-galli"
1,CCS(=O)(=O)N(c1ccccc1Cc1c(C)n(C(C)c2ccccc2)oc1=O)S(=O)(=O)C(F)(F)F (centres unmarked) [Compound 1-917],90%
2,COCC(C)n1oc(=O)c(Cc2ccccc2N(C(=O)Cc2ccccc2)S(=O)(=O)C(F)(F)F)c1C (centres unmarked) [Compound 1-506],90%

# System: southern crabgrass
# Assay: Test Example 4: herbicidal effect test by treatment of leave and stem in dry field farming (seven days after seeding)
# Assay type: in vivo
# Details: 120 g/10a active ingredient; emulsion sprayed seven days after seeding; evaluated 14 days after treatment
# Method in brief: (§3)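 Twenty seeds per species were mixed into the top 1 cm of alluvial soil in 36 cm^2 pots; emulsions were sprayed seven days after seeding at 100 L per 10 ares (120 g active ingredient per 10 ares). Herbicidal rate (%) = {1 − treated/untreated mean dry weight} × 100, 14 days after treatment, duplicate.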
row,SMILES,"herbicidal effect (herbicidal rate), southern crabgrass"
1,CCS(=O)(=O)N(c1ccccc1Cc1c(C)n(C(C)c2ccccc2)oc1=O)S(=O)(=O)C(F)(F)F (centres unmarked) [Compound 1-917],90%
2,COCC(C)n1oc(=O)c(Cc2ccccc2N(C(=O)Cc2ccccc2)S(=O)(=O)C(F)(F)F)c1C (centres unmarked) [Compound 1-506],90%

# System: Amaranthus viridis
# Assay: as above
# Assay type: in vivo
# Details: 120 g/10a active ingredient; emulsion sprayed seven days after seeding; evaluated 14 days after treatment
# Method in brief: as §3
row,SMILES,"herbicidal effect (herbicidal rate), Amaranthus viridis"
1,CCS(=O)(=O)N(c1ccccc1Cc1c(C)n(C(C)c2ccccc2)oc1=O)S(=O)(=O)C(F)(F)F (centres unmarked) [Compound 1-917],40%
2,COCC(C)n1oc(=O)c(Cc2ccccc2N(C(=O)Cc2ccccc2)S(=O)(=O)C(F)(F)F)c1C (centres unmarked) [Compound 1-506],40%

# System: Chenopodium album
# Assay: as above
# Assay type: in vivo
# Details: 120 g/10a active ingredient; emulsion sprayed seven days after seeding; evaluated 14 days after treatment
# Method in brief: as §3
row,SMILES,"herbicidal effect (herbicidal rate), Chenopodium album"
1,CCS(=O)(=O)N(c1ccccc1Cc1c(C)n(C(C)c2ccccc2)oc1=O)S(=O)(=O)C(F)(F)F (centres unmarked) [Compound 1-917],40%
2,COCC(C)n1oc(=O)c(Cc2ccccc2N(C(=O)Cc2ccccc2)S(=O)(=O)C(F)(F)F)c1C (centres unmarked) [Compound 1-506],40%

# System: Echinochloa crus-galli
# Assay: as above
# Assay type: in vivo
# Details: 120 g/10a active ingredient; emulsion sprayed seven days after seeding; evaluated 14 days after treatment
# Method in brief: as §3
row,SMILES,"herbicidal effect (herbicidal rate), Echinochloa crus-galli"
1,CCS(=O)(=O)N(c1ccccc1Cc1c(C)n(C(C)c2ccccc2)oc1=O)S(=O)(=O)C(F)(F)F (centres unmarked) [Compound 1-917],90%
2,COCC(C)n1oc(=O)c(Cc2ccccc2N(C(=O)Cc2ccccc2)S(=O)(=O)C(F)(F)F)c1C (centres unmarked) [Compound 1-506],90%

# System: broad leaf weeds (Lindernia pyxidaria and Monochoria vaginalis)
# Assay: Test Example 2: herbicidal effect test by treatment during growing period in paddy rice cultivation (seven days after seeding)
# Assay type: in vivo
# Details: Lindernia pyxidaria, 120 g/10a active ingredient, assessed 14 days after treatment, dry weight vs untreated area
# Method in brief: (§4)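 Paddy soil in Wagner pots with compound fertilizer, puddled; 30 seeds per species sown at 0–1 cm, flooded ~3 cm, greenhouse. Seven days after seeding, water-diluted emulsions were dropped into the water at 120 g active ingredient per 10 ares. Duplicate pots; herbicidal rate from dry weight versus untreated, 14 days after treatment.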
row,SMILES,Herbicidal rate (%) Lindernia pyxidaria
1,CCS(=O)(=O)N(c1ccccc1Cc1c(C)n(C(C)c2ccccc2)oc1=O)S(=O)(=O)C(F)(F)F (centres unmarked) [Compound 1-917],90%
2,COCC(C)n1oc(=O)c(Cc2ccccc2N(C(=O)Cc2ccccc2)S(=O)(=O)C(F)(F)F)c1C (centres unmarked) [Compound 1-506],90%

# Same assay, conditions: Monochoria vaginalis, 120 g/10a active ingredient, assessed 14 days after treatment, dry weight vs untreated area
row,SMILES,Herbicidal rate (%) Monochoria vaginalis
1,CCS(=O)(=O)N(c1ccccc1Cc1c(C)n(C(C)c2ccccc2)oc1=O)S(=O)(=O)C(F)(F)F (centres unmarked) [Compound 1-917],90%
2,COCC(C)n1oc(=O)c(Cc2ccccc2N(C(=O)Cc2ccccc2)S(=O)(=O)C(F)(F)F)c1C (centres unmarked) [Compound 1-506],90%

# System: Scirpus juncoides
# Assay: as above
# Assay type: in vivo
# Details: 120 g/10a active ingredient, assessed 14 days after treatment, dry weight vs untreated area
# Method in brief: as §4
row,SMILES,Herbicidal rate (%) Scirpus juncoides
1,CCS(=O)(=O)N(c1ccccc1Cc1c(C)n(C(C)c2ccccc2)oc1=O)S(=O)(=O)C(F)(F)F (centres unmarked) [Compound 1-917],90%
2,COCC(C)n1oc(=O)c(Cc2ccccc2N(C(=O)Cc2ccccc2)S(=O)(=O)C(F)(F)F)c1C (centres unmarked) [Compound 1-506],90%

# System: Echinochloa crus-galli
# Assay: as above
# Assay type: in vivo
# Details: 120 g/10a active ingredient, assessed 14 days after treatment, dry weight vs untreated area
# Method in brief: as §4
row,SMILES,Herbicidal rate (%) Echinochloa crus-galli
1,CCS(=O)(=O)N(c1ccccc1Cc1c(C)n(C(C)c2ccccc2)oc1=O)S(=O)(=O)C(F)(F)F (centres unmarked) [Compound 1-917],90%
2,COCC(C)n1oc(=O)c(Cc2ccccc2N(C(=O)Cc2ccccc2)S(=O)(=O)C(F)(F)F)c1C (centres unmarked) [Compound 1-506],90%

# Source: patent US11109593B2, “Isoxazolin-5-one derivative and herbicide containing same as active ingredient” (HOKKO CHEMICAL INDUSTRY CO., LTD., priority 2017, dated 2021)
